“Also recorded” adds a separate entry of the source.
Key:
[1] = test system: platelets; experiment: ABT-737 administration to mice, peripheral blood platelet counts; assay type: in vivo, mouse
Protocol: Animals were bled 2-24 h afterwards and platelet counts determined. […] Platelet counts (blue symbols; left axis) were determined 2-96 h after a single dose of ABT-737 (red arrow). […] Orange symbols represent serum TPO levels (right axis). […] Platelet counts were determined before and 8 h after a single dose of ABT-737 (red arrows) given at weekly intervals. […] (E) Synchronizing platelets. […] Wild type C57BL/6 mice were treated with APS, and then injected with ABT-737 (red arrows) either 2 or 7 days afterwards. Absolute platelet counts and the % of reticulated platelets were measured. The top panels show representative flow cytometric profiles following thiazole orange staining before or after ABT-737 injections. The bottom panels show platelet counts prior to or 2 h post ABT-737 injection. Data in (B), (C), (E) and (F) represent means±SD of 3-6 mice at each time point. […]
The hematocrit, platelet and white cell count, and differential were determined by using either manual or automated (Advia 120) counting techniques. In most experiments, with the exception of data shown in FIGS. 1A and 6E, the data was collected from male mice. Clonal cultures of 2.5×10^4 adult bone marrow cells or 5×10^4 spleen cells in 1 mL of 0.3% agar in DMEM supplemented with newborn calf serum (20%) were stimulated with a mixture of 100 ng/mL murine stem cell factor, 10 ng/mL murine IL-3, 4 units/mL human EPO and incubated for 7 days at 37° C. in a fully humidified atmosphere of 10% CO2 in air. Agar cultures were fixed, sequentially stained for acetylcholinesterase, Luxol fast blue and hematoxylin; the cellular composition of each colony determined at ×100-400 magnification. Megakaryocyte counts were performed by manual counting from sections of sternum and spleen after staining with hematoxylin/eosin. A minimum of 10 high-power fields (×200) were scored.
Mice were injected intra-peritoneally with 75 mg/kg of ABT-737 given as a single dose or daily. A stock solution of ABT-737 (1 g/mL in DMSO) was diluted in a mixture of 30% propylene glycol, 5% Tween 80, 65% D5W (5% dextrose in water), pH 4-5; the final concentration of DMSO was less than 1%.

[2] = test system: human platelets; conditions: 1 μM for 1 or 2 h
Protocol: Human whole blood was obtained with informed consent (approved by the Institutional Review Board), Platelet rich plasma was obtained and incubated at room temperature with drug or control for up to 2 h. Platelets were counted manually in triplicate using a hemacytometer.

[3] = mouse, in vivo; cited from earlier work
[4] = test system: reticulated platelets; experiment: Reticulated platelet labeling (thiazole orange) after ABT-737; assay type: in vivo, mouse; conditions: thiazole orange staining after a single dose
Protocol: Animals were bled 2-24 h afterwards and platelet counts determined. […] (B) Platelet recovery after a single dose of ABT-737. Platelet counts (blue symbols; left axis) were determined 2-96 h after a single dose of ABT-737 (red arrow). […] Orange symbols represent serum TPO levels (right axis). (C) Cyclical acute thrombocytopaenia triggered by ABT-737. Platelet counts were determined before and 8 h after a single dose of ABT-737 (red arrows) given at weekly intervals. […] During recovery, baseline counts drifted upwards. (D) ABT-737 acts selectively on aged platelets. […] (E) Synchronizing platelets. […] During recovery, the newly synthesized younger platelets are larger as indicated by the increased mean platelet volume (blue symbols; right axis). (F) Young platelets are resistant to ABT-737. Wild type C57BL/6 mice were treated with APS, and then injected with ABT-737 (red arrows) either 2 or 7 days afterwards. Absolute platelet counts and the % of reticulated platelets were measured. The top panels show representative flow cytometric profiles following thiazole orange staining before or after ABT-737 injections. The bottom panels show platelet counts prior to or 2 h post ABT-737 injection. Data in (B), (C), (E) and (F) represent means±SD of 3-6 mice at each time point.
Staining of reticulated platelets was performed using thiazole orange. […]

CN(C)CC[C@H](CSc1ccccc1)Nc1ccc(S(=O)(=O)NC(=O)c2ccc(N3CCN(Cc4ccccc4-c4ccc(Cl)cc4)CC3)cc2)cc1[N+](=O)[O-] [ABT-737]
effect of ABT-737 on newly synthesized young platelets ([1]; ABT-737 injected 2 days post-APS, counts 2 h post injection): highly resistant
effect of ABT-737 on aged platelets ([1]; ABT-737 injected 7 days post APS, counts 2 h post injection): susceptible
effect of ABT-737 on platelets in Bak^-/- Bax^+/- mice ([1]; Bak^-/- Bax^+/- mice, single dose 75 mg/kg, 0-24 h, 75 mg/kg): entirely refractory; also recorded: enthely refractory; also recorded: completely protected
effect of ABT-737 on platelet counts in Bak^-/- mice ([1]; Bak^-/- mice, single dose 75 mg/kg, 0-24 h, 75 mg/kg): significantly buffered; also recorded: unaffected by ABT-737 at early time points (up to 4 h)
impact of loss of Bax alone on the effect of ABT-737 ([1]; Bax-deficient mice (data not shown)): little impact
ABT-737-induced thrombocytopaenia in Bcl-x^+/- mice ([1]; Bcl-x^+/- vs wild type and Bcl-2^+/- mice, single dose 75 mg/kg, 2-24 h, 75 mg/kg): exacerbates
platelet levels during continued daily ABT-737 ([1]; daily injections continued for 14 days): 60-70 % of normal
platelet counts with weekly ABT-737 ([1]; single dose given at weekly intervals, counts before and 8 h after): acute thrombocytopaenia ensued in a cyclical manner; also recorded: comparable drop in platelets each time
dose dependence of thrombocytopaenia ([1]; wild type C57BL/6 mice (data not shown)): dose dependent
platelet counts after recovery from a single dose ([1]; wild type C57BL/6 mice, 2-96 h after a single dose): rebound thrombocytosis by day 4
time for platelet counts to recover to normal levels ([1]; wild type C57BL/6 mice, after a single dose): ≤ 3 days
susceptibility of human platelets to ABT-737 [2]: caspase-dependent susceptibility
tolerability in mice [3]: well-tolerated
proportion of reticulated platelets post ABT-737 [4]: transient increase; also recorded: increased proportion
